What all share (test): Enzyme Inhibition Measurements
One assay concerns the target Plasmepsin I (Plasmodium falciparum, UniProt P39898). Conditions: pH 4.5; 22 °C. On the procedure: (§1) Enzyme activities were assayed by monitoring the hydrolysis of substrate in the presence or absence of inhibitor compounds. The hydrolysis was recorded as the increase in fluorescence intensity over a 10 min time period. IC50 values were obtained by assuming competitive inhibition and fitting the dose response data to the equation (Vi/V0) =1/ (1 + [I]/IC50)). The Ki was calculated by using Ki = IC50/ (1 + [S]/Km), and a Km value determined according to Michaelis-Menten.

The target in another assay is Plasmepsin II (Plasmodium falciparum (isolate HB3), UniProt P46925). Conditions: pH 4.5; 22 °C. The protocol: as §1
Chain of Plasmepsin II (P46925 whole entry): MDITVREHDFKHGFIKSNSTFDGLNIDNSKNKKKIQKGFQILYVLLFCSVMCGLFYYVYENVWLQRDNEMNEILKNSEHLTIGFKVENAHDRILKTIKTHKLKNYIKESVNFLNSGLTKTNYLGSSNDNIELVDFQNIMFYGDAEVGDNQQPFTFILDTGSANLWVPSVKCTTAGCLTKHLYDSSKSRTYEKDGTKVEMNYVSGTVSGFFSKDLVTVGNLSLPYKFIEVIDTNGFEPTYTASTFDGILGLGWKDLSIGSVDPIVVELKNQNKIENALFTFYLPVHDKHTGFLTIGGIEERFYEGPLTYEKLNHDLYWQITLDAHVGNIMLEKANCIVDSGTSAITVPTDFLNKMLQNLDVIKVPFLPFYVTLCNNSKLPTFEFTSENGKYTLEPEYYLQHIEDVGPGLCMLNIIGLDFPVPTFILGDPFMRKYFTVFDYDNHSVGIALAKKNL
The target of the next assay is Cathepsin D (Homo sapiens, UniProt P07339). On the procedure:
as §1

By Ki is commonly meant the dissociation constant of the complex between target and ligand, obtained from inhibition or displacement. A low value points to higher affinity.

Chain of Plasmepsin I (P39898 whole entry): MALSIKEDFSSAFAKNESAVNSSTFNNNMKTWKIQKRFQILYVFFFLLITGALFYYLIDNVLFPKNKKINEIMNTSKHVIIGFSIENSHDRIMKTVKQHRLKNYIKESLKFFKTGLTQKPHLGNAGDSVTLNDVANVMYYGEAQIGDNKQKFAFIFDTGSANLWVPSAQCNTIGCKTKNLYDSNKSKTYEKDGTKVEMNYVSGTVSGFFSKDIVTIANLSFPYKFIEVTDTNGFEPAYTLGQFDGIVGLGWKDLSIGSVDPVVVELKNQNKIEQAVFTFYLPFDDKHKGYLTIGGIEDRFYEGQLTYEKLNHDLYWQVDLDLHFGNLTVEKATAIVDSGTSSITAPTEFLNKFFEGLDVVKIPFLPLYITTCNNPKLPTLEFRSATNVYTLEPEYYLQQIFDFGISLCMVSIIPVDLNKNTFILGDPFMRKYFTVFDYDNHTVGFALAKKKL
Chain of Cathepsin D (P07339 65-162 limits assumed): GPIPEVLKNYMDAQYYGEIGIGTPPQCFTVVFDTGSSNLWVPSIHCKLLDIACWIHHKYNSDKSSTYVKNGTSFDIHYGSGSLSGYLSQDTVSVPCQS
Chain of Cathepsin D (P07339 169-412 limits assumed): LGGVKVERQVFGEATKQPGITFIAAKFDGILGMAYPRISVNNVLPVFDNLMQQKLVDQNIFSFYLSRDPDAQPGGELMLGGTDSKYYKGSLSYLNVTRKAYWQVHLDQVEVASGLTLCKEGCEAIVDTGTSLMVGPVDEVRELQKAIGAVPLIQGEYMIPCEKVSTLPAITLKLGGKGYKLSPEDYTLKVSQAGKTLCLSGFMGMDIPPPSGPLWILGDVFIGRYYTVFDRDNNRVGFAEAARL

For `CC(C)[C@H](NC(=O)c1ccccn1)C(=O)N[C@@H](Cc1ccccc1)[C@@H](O)CN[C@H](Cc1ccccc1)C(N)=O` [(2R,5S,6R)-3-Aza-2-benzyl-5-hydroxy-7-phenyl-6-[(picolyl-L-valinyl)amino]heptanoyl Amide], the inhibitory constant (Ki) on Plasmepsin I was determined as 8 µM; on Plasmepsin II, 3.5 µM.

On to `CC(C)C[C@H](NC[C@H](O)[C@H](Cc1ccccc1)NC(=O)[C@@H](NC(=O)c1ccccn1)C(C)C)C(N)=O` [(2S)-2-{[(2S,3S)-2-hydroxy-3-[(2S)-3-methyl-2-(pyridin-2-ylformamido)butanamido]-4-phenylbutyl]amino}-4-methylpentanamide], for which the inhibition constant (Ki) at Plasmepsin I was determined as 2.9 µM; on Plasmepsin II, 3.3 µM.

Turning to `Cc1ccc(-c2ccc(C[C@H](NC[C@H](O)[C@H](Cc3ccccc3)NC(=O)[C@@H](NC(=O)c3ccccn3)C(C)C)C(N)=O)cc2)cc1` [(2S)-N-[(2S,3S)-4-{[(1S)-1-carbamoyl-2-[4-(4-methylphenyl)phenyl]ethyl]amino}-3-hydroxy-1-phenylbutan-2-yl]-3-methyl-2-(pyridin-2-ylformamido)butanamide], the Ki at Cathepsin D amounted to 1.7 µM.

As to `CC(C)[C@H](NC(=O)c1ccccn1)C(=O)N[C@@H](Cc1ccccc1)[C@@H](O)CN[C@@H](Cc1ccc(-c2cccc(N)c2)cc1)C(N)=O` [(2S,5S,6R)-3-Aza-2-[p-(m-aminophenyl)benzyl]-5-hydroxy-7-phenyl-6-[(picolyl-L-valinyl)amino]heptanoyl Amide], the affinity at Cathepsin D, expressed as Ki, was 1 µM.

Consider `CC(C)[C@H](NC(=O)c1ccccn1)C(=O)N[C@@H](Cc1ccccc1)[C@@H](O)CN[C@@H](Cc1ccccc1)C(N)=O` [(2S,5S,6R)-3-Aza-2-benzyl-5-hydroxy-7-phenyl-6-[(picolyl-L-valinyl)amino]heptanoyl Amide], for which the Ki is 2.1 µM on Plasmepsin I and 3.2 µM at Plasmepsin II.

At Cathepsin D, `COc1ccccc1-c1ccc(C[C@H](NC[C@H](O)[C@H](Cc2ccccc2)NC(=O)[C@@H](NC(=O)c2ccccn2)C(C)C)C(N)=O)cc1` [(2S,5S,6R)-3-Aza-5-hydroxy-2-[p-(o-methoxyphenyl)-benzyl]-7-phenyl-6-[(picolyl-L-valinyl)amino]heptanoyl Amide] came in with a Ki of 1.7 µM.

Values taken from BindingDB's records for doi:10.1021/jm020951i (Uppsala University, 2003).
